From patent publication US11130741B2 (Bioimics AB, priority 2016, dated 2021)
In brackets after ≈: the same amount, converted by molar mass.

Tests used:
[1] = test system: E. coli RNase P RNA, M1 RNA; assay: Inhibition of bacterial RNase P activity, IC50 determination (cleavage of pATSerUG by M1 RNA); assay type: biochemical; conditions: NI = No inhibition
[2] = test system: Staphylococcus aureus subsp. aureus (ATCC29213); assay: MIC, broth microdilution (CLSI), Staphylococcus aureus subsp. aureus ATCC29213; assay type: cell-based; conditions: ATCC29213, Table 15, read-out: S. aureus ("wound") (MIC)
[3] = test system: Escherichia coli (ATCC25922); assay: MIC, broth microdilution (CLSI), Escherichia coli ATCC25922; conditions: ATCC25922, read-out: E. coli MIC, Table 15, NI = No inhibition
[4] = test system: Staphylococcus aureus (ATCC25923); assay: MIC, broth microdilution (CLSI), Staphylococcus aureus ATCC25923; conditions: ATCC25923, read-out: S. aureus ("Clinical") MIC
Procedure: Initial minimal inhibitory concentration (MIC) tests were made on two bacterial strains: • Escherichia coli (ATCC25922) • Staphylococcus aureus (ATCC25923).
Minimal Inhibitory Concentration (MIC)
MIC values were determined using the standard broth microdilution procedure based on the guidelines by the Clinical and Laboratory Standards Institute (CLSI). Briefly, the compounds were dissolved in DMSO to 10 mM. They were diluted in cation-adjusted Mueller-Hinton broth (CAMHB) to four times the highest concentration tested. A serial 2-fold dilution in CAMHB was done in microdilution plates. The inoculum of bacterial strain to be tested was prepared by making a suspension of colonies from an 18 to 24 hours old plate in CAMHB. The inoculum was diluted so that, after inoculation, each well contained approximately 5×10^5 CFU/mL. To a volume of 50 μl compound in CAMHB an equal volume of inoculum was added. The tray was sealed in a plastic bag and incubated at 35° C. for 16 to 20 hours. To aid in the detection of growth the dye resazurin was added to a final concentration 0.001% and incubated at room temperature for 1 h. Reduction of resazurin, and therefore bacterial growth, was seen as a change from blue to pink.

SMILES	IC50 [1] [µM]	MIC [2] [µg/mL]	MIC [3] [µg/mL]	MIC [4] [µg/mL]
NCC(O)CNC(=O)c1cc2c(c([N+](=O)[O-])c1)Nc1ccccc1S2 (centres unmarked) [compound 94, N-(3-amino-2-hydroxypropyl)-1-nitro-10H-phenothiazine-3-carboxamide]	202	94 (≈ 261 µM)	> 100	64 (≈ 178 µM)
CN(C)CCCN1c2ccccc2Sc2cc(-c3cc4ccccc4n3CCN)ccc21 [compound 136, 3-(3-(1-(2-aminoethyl)-1H-indol-2-yl)-10H-phenothiazin-10-yl)-N,N-dimethylpropan-1-amine]	37	16 (≈ 36.1 µM)	7 (≈ 15.8 µM)	7 (≈ 15.8 µM)
FC(F)(F)c1cc(NC2CCNCC2)c2c(c1)Sc1ccccc1N2 [compound 141, N-(piperidin-4-yl)-3-(trifluoromethyl)-10H-phenothiazin-1-amine]	12	6 (≈ 16.4 µM)	12 (≈ 32.8 µM)	3 (≈ 8.21 µM)
NCCCN1c2ccc(-c3cc4ccccc4[nH]3)cc2Sc2cc(N3CCNCC3)ccc21.O=C(O)C(F)(F)F [compound 244, 3-(3-(1H-indol-2-yl)-7-(piperazin-1-yl)-10H-phenothiazin-10-yl)propan-1-amine]	4	4	36	9
NCCN(CCN)CCN1CCC(Nc2cc(C(F)(F)F)cc3c2Nc2ccccc2S3)CC1 [compound 234, N1-(2-aminoethyl)-N1-(2-(4-((3-(trifluoromethyl)-10H-phenothiazin-1-yl)amino)piperidin-1-yl)ethyl)ethane-1,2-diamine]		8 (≈ 16.2 µM)	8 (≈ 16.2 µM)	4 (≈ 8.09 µM)
NC1CCCC(C(=O)Nc2cc(C(F)(F)F)cc3c2Nc2ccccc2S3)C1 (centres unmarked) [compound 105, 3-Amino-N-(3-(trifluoromethyl)-10H-phenothiazin-1-yl)cyclohexanecarboxamide]	15	32 (≈ 78.5 µM)	52 (≈ 128 µM)	26 (≈ 63.8 µM)
O=C(CC1CCC(F)(F)CC1)Nc1cc(C(F)(F)F)cc2c1Nc1ccccc1S2 [compound 132, 2-(4,4-difluorocyclo-hexyl)-N-(3-(trifluoromethyl)-10H-phenothiazin-1-yl)acetamide]	> 100		> 100	4 (≈ 9.04 µM)
NCCN1CCC(Nc2cc(C(F)(F)F)cc3c2Nc2ccccc2O3)CC1 [compound 206, N-(1-(2-aminoethyl)piperidin-4-yl)-3-(trifluoromethyl)-10H-phenoxazin-1-amine]	89		50 (≈ 127 µM)	25 (≈ 63.7 µM)
N[C@H]1CCC[C@@H](CNc2cc(C(F)(F)F)cc3c2Nc2ccccc2S3)C1 [compound 182, N-(((1R,3S)-3-aminocyclohexyl)methyl)-3-(trifluoromethyl)-10H-phenothiazin-1-amine]	61		25 (≈ 63.5 µM)	3 (≈ 7.62 µM)
O=C(Nc1cc(C(F)(F)F)cc2c1Nc1ccccc1S2)C1CNC1 [compound 188, N-(3-(trifluoromethyl)-10H-phenothiazin-1-yl)azetidine-3-carboxamide]	> 100		23 (≈ 62.9 µM)	12 (≈ 32.8 µM)
CN(C)CCCN1c2ccc(Cl)cc2Sc2cccnc21 [compound 126, 3-(7-chloro-10H-benzo[b]pyrido [2,3-e][1,4]thiazin-10-yl)-N,N-dimethyl-propan-1-amine]	> 100		> 100	82 (≈ 256 µM)
NCCN1CCC(c2nc3cc(C(F)(F)F)cc4c3n2-c2ccccc2S4)CC1 [compound 239, 2-(4-(4-(Trifluoromethyl)imidazo[4,5,1-kl]phenothiazin-1-yl)piperidin-1-yl)ethanamine]	17		13 (≈ 31.1 µM)	7 (≈ 16.7 µM)
NCCCNc1cc(C(F)(F)F)cc2c1Nc1ccccc1S2 [compound 97, N1-(3-(trifluoromethyl)-10H-phenothiazin-1-yl)propane-1,3-diamine]	> 100		8 (≈ 23.6 µM)	4 (≈ 11.8 µM)
NNC(=O)c1cc(NC2CCNCC2)c2c(c1)Sc1ccccc1N2.O=C(O)C(F)(F)F [compound 210, 1-(piperidin-4-ylamino)-10H-phenothiazine-3-carbohydrazide 2,2,2-trifluoroacetate salt]	95		> 100	60
FC(F)(F)c1cc(NC2CCNCC2)cc2c1Nc1ccccc1S2 [compound 240, N-(piperidin-4-yl)-1-(trifluoromethyl)-10H-phenothiazin-3-amine]	62		> 100	23 (≈ 62.9 µM)
NC1CCCC(Nc2cc(C(F)(F)F)cc3c2Nc2ccccc2S3)C1 (centres unmarked) [compound 204, N1-(3-(trifluoromethyl)-10H-phenothiazin-1-yl)cyclohexane-1,3-diamine]	8		12 (≈ 31.6 µM)	3 (≈ 7.91 µM)
CN(C)CCCN1c2ccccc2Sc2cc(-c3ccc4[nH]ccc4c3)ccc21 [compound 121, 3-(3-(1H-indol-5-yl)-10H-phenothiazin-10-yl)-N,N-dimethylpropan-1-amine]	> 100		> 100	6 (≈ 15 µM)

SMILES	IC50 [1] [µM]	MIC [2] [µg/mL]	MIC [3] [µg/mL]	MIC [4] [µg/mL]
NCCN1CC(Nc2cc(C(F)(F)F)cc3c2Nc2ccccc2S3)C1 [compound 208, N-(1-(2-aminoethyl)azetidin-3-yl)-3-(trifluoromethyl)-10H-phenothiazin-1-amine]	258		24 (≈ 63.1 µM)	12 (≈ 31.5 µM)
FC(F)(F)c1cc(NC2CCNC2)c2c(c1)Sc1ccccc1N2 (centres unmarked) [compound 174, N-(pyrrolidin-3-yl)-3-(trifluoromethyl)-10H-phenothiazin-1-amine]	50		11 (≈ 31.3 µM)	3 (≈ 8.54 µM)
CC(N)CC(=O)Nc1cc(C(F)(F)F)cc2c1N(CCCN(C)C)c1ccccc1S2 (centres unmarked) [compound 90, 3-amino-N-(10-(3-(dimethylamino)propyl)-3-(trifluoromethyl)-10H-phenothiazin-1-yl)butanamide]	> 100		> 100	64 (≈ 141 µM)
NCCN1CCCC(C(=O)Nc2cc(C(F)(F)F)cc3c2Nc2ccccc2S3)C1 (centres unmarked) [compound 203]	4		14 (≈ 32.1 µM)	14 (≈ 32.1 µM)
O=C(CC1(O)CCC(F)(F)CC1)Nc1cc(C(F)(F)F)cc2c1Nc1ccccc1S2 [compound 115, 2-(4,4-difluoro-1-hydroxycyclo-hexyl)-N-(3-(trifluoromethyl)-10H-phenothiazin-1-yl)acetamide]	> 100		> 100	7 (≈ 15.3 µM)
CC(Nc1cc(C(F)(F)F)cc2c1Nc1ccccc1S2)C1CCCC(N)C1 (centres unmarked) [compound 190, N-(1-(3-aminocyclohexyl)ethyl)-3-(trifluoromethyl)-10H-phenothiazin-1-amine]	82		26 (≈ 63.8 µM)	3 (≈ 7.36 µM)
NC1CCCC(C(=O)Nc2cc(C(F)(F)F)cc3c2Nc2cc(F)ccc2S3)C1.O=C(O)C(F)(F)F (centres unmarked) [compound 124, 3-Amino-N-(8-fluoro-3-(trifluoromethyl)-10H-phenothiazin-1-yl)cyclohexane carboxamide. TFA Salt]	59		35	17
NC1CCCC(CC(=O)Nc2cc(C(F)(F)F)cc3c2Nc2ccccc2S3)C1 (centres unmarked) [compound 167, 2-(3-aminocyclohexyl)-N-(3-(trifluoromethyl)-10H-phenothiazin-1-yl)acetamide]	> 100		27 (≈ 64.1 µM)	13 (≈ 30.8 µM)
N[C@@H]1CCC[C@H](C(=O)Nc2cc(C(F)(F)F)cc3c2Nc2ccccc2S3)C1 [compound 125, (1S,3R)-3-amino-N-(3-(trifluoromethyl)-10H-phenothiazin-1-yl)cyclohexane-carboxamide]	20		26 (≈ 63.8 µM)	13 (≈ 31.9 µM)
FC(F)(F)c1cc(NC[C@@H]2COCCN2)c2c(c1)Sc1ccccc1N2 [compound 159, (R)-N-(morpholin-3-ylmethyl)-3-(trifluoromethyl)-10H-phenothiazin-1-amine]	> 100		> 100	12 (≈ 31.5 µM)
NC[C@H]1CC[C@H](C(=O)Nc2cc(C(F)(F)F)cc3c2Nc2ccccc2S3)CC1 [compound 120, (1R,4R)-4-(aminomethyl)-N-(3-(trifluoromethyl)-10H-phenothiazin-1-yl)cyclohexane-carboxamide]	12		> 100	27 (≈ 64.1 µM)
COc1ccc2[nH]c(-c3ccc4c(c3)Sc3ccccc3N4CCCN(C)C)cc2c1 [compound 144, 3-(3-(5-methoxy-1H-indol-2-yl)-10H-phenothiazin-10-yl)-N,N-dimethylpropan-1-amine]	> 100		> 100	3 (≈ 6.98 µM)
NC1CCCC(C(=O)Nc2cc(C(F)(F)F)cc3nc4ccccc4nc23)C1 (centres unmarked) [compound 211, 3-amino-N-(3-(trifluoromethyl)phenazin-1-yl) cyclohexane-carboxamide]	258	211 (≈ 543 µM)		25 (≈ 64.4 µM)
NCCN1CCC(C(=O)Nc2cc(C(F)(F)F)cc3c2Nc2ccccc2S3)CC1 [compound 199]	65		28 (≈ 64.1 µM)	28 (≈ 64.1 µM)
NCCN1CC(C(=O)Nc2cc(C(F)(F)F)cc3c2Nc2ccccc2S3)C1 [compound 196]	> 100		52 (≈ 127 µM)	26 (≈ 63.7 µM)
CN(C)CCCN1c2ccccc2Sc2cc(-c3ccc4scnc4c3)ccc21 [compound 130, 3-(3-(benzo[d]thiazol-5-yl)-10H-phenothiazin-10-yl)-N,N-dimethylpropan-1-amine]	57		> 100	7 (≈ 16.8 µM)
FC(F)(F)c1cc(NC2CCCNC2)c2c(c1)Sc1ccccc1N2 (centres unmarked) [compound 172, N-(piperidin-3-yl)-3-(trifluoromethyl)-10H-phenothiazin-1-amine]	27		23 (≈ 62.9 µM)	6 (≈ 16.4 µM)
